Data taken from patent US6130250A, “Veterinary use of a pleuromutilin derivative” (priority 1996, dated 2000).
Counter-ions that a name gives are not always drawn. Like-named read-outs stand apart in the source and are kept apart here.

Tests used:
S. hyodysenteriae = assay: Further challenge trial: treatment of swine dysentery; type: in vivo, pigs
Excerpt: A group of 60 (3.5 to 4 weeks old) conventionally reared pigs are fed unmedicated food for 14 days then challenged by the oral route with the standard strain of S. hyodysenteriae (P18A). When clinical signs of disease are evident, pigs are allocated to six treatment groups of 8 pigs per group and fed antibiotic containing feed for 10 days, then unmedicated food for a further 14 days. Valnemulin hydrochloride is fed at 50, 75, 100 and 150 ppm and compared with tiamulin hydrogen fumarate fed at 100 ppm and with unmedicated controls. Pigs with a range of clinical signs of disease are included in each treatment group. After allocation to the treatment groups the evidence of clinical disease is assessed daily and a clinical score assigned, rectal swabs are taken twice weekly for isolation of S. hyodysenteriae and all pigs are weighed at regular intervals. Food intake is also recorded. A post-mortem examination is carried out 24 days after challenge and the large intestine of each pig examined for the presence of lesions. Mucosal scrapings are also taken from 4 areas in the large intestine and cultured for S. hyodysenteriae.

Mycoplasma gallisepticum [1] = assay: Challenge study, prevention of Mycoplasma gallisepticum infection; type: in vivo, male broiler chickens; settings: for prevention of clinical signs and mortality: tiamulin three doses
Method: Groups of male broiler chickens are infected with a virulent strain of Mycoplasma gallisepticum (MG) and each group medicated respectively with one of the following: valnemulin (concentrations of 0.00312, 0.00625, 0.0125 and 0.025%), tiamulin (0.00625, 0.0125 and 0.025%), and tylosin (0.05%). Infection is effected on day 2 by injection of 0.1 ml of Mycoplasma gallisepticum culture containing approximately 10^6 cfu of viable organisms into each lung (Jordan, F. T. W., The Veterinary Record 127 [1990] 502) and medication is commenced within an hour of infection and continued for three consecutive days. There is also an infected untreated group and an uninfected group.

Mycoplasma gallisepticum [2] = assay: Challenge study, treatment of Mycoplasma gallisepticum infection; type: in vivo, male broiler chicks; settings: for mortality: valnemulin all three concentrations, tiamulin 0.05%
Excerpt: Groups of male broiler chicks are infected with a virulent strain of Mycoplasma gallisepticum (MG) and each group medicated respectively with valnemulin at a concentration of 0.0125%, 0.025%, 0.05%, tiamulin at the same concentration, tylosin 0.05% and a […], spectinomycin combination (Linco-Spectin) 0.083%. There is also one infected group left untreated and an uninfected group. The chicks are infected at two days of age by the injection of 3.4×10^5 organisms into each lung. Medication in the drinking water is commenced 24 hours later for three successive days except for Linco-Spectin with which treatment was continued for 5 days.

Pasteurella multocida = assay: MIC against Pasteurella multocida isolates; type: cell-based; settings: for MIC: Pasteurella multocida, 10 isolates
Method: (§1) The minimal inhibitory concentration (MIC) of valnemulin hydrochloride against recent isolates of Pasteurelia multocida, Haemophilus pleuropneumoniae and Haemophilus parasuis originating from porcine respiratory material is determined and compared with tiamulin. […] Three of the Pasteurella isolates were toxigenic strains of Pasteurella multocida. For H. pleuropneumoniae and H. parasuis, on the day before testing a single loopful of each of the pure cultures is inoculated into 10 ml of Todd & Hewitt broth (Unipath CM190) containing 1% donor calf serum and 2 mg per ml of nicotinamide adenine dinucleotide (NAD). For P. multocida, […] a single loopful of each of the pure cultures is inoculated into 10 ml of nutrient broth No. 2 (Unipath CM67) containing 1% donor calf serum. Each of the prepared broth cultures are incubated for 18 hours at 37° C. in 10% CO2. […] For each test compound, standard control cultures of Oxford Staphylococcus aureus NCTC 6571 are also set up to validate the results of the MIC tests. In each case, broth cultures set up from the control organisms are identical to those of the organisms under test. Valnemulin is a hydrochloride, tiamulin is used as the hydrogen fumarate. […] Sensitised agar (Oxoid CM409) containing lysed horse blood (Oxoid SR50) is prepared according to the manufacturer's recommendations and adjusted to pH 7.4 it necessary. […] Four replicate plates are prepared from each dilution. […] After inoculation the growth of the organisms is examined initially by eye followed by microscopic examination on a stereo zoom microscope. The MIC value is taken as the lowest concentration of test compound at which no growth can be detected at the point of inoculation on all four plates by microscopic examination.

[3] = tested on: Haemophilus pleuropneumoniae; assay: MIC against Haemophilus pleuropneumoniae isolates; type: cell-based; settings: for MIC: Actinobacillus pleuropneumoniae, 10 isolates
Method: as §1

Mycoplasma hyosynoviae = assay: MIC assay, 7 field isolates of Mycoplasma hyosynoviae; type: cell-based; settings: for MIC: Mycoplasma, 7 field isolates
Method: Tissue samples are obtained from the lungs of pigs from various enzootic pneumonia of pigs (EPP)--affected herds. Samples are shipped on dry ice for culture. Four isolates from lung samples initially isolated for recovery of Mycoplasma hyopneumoniae were reisolated for Mycoplasma hyosynoviae after it had been noted from the lung samples submitted (re-stored at -70° C.), during culture for M. hyopneumoniae, that some samples yielded luxuriant growth of colonies having the typical morphology of Mycoplasma hyosynoviae. Three further isolates were recovered from other lung samples provided. All isolates were serologically identified by disc growth inhibition with specific rabbit antiserum raised against Mycoplasma hyosynoviae. A commerically available solid medium (Mycoplasma Experience Ltd.) is used to isolate M. hyosynoviae from lung tissue. A liquid medium (Mycoplasma Experience Ltd.) containing phenol red and arginine (pH 7.0) is used for the MIC assay.
Stock solutions of test compound are prepared at 1 mg/ml concentration in deionised water, sterilised by filtration through 0.2μ pore size membrane filters (Sartorius Minisart, N) and stored at -20° C. For use in the MIC tests the stock solutions are diluted in liquid medium to double the final concentrations required. MIC tests are carried out according to the method of Tanner and Wu, Avian Diseases 36 (1992) 714-717. Actively growing challenge cultures are prepared either from 1 ml aliquots of broth cultures stored at -70° C. or from cultures stored on agar at -70° C. The challenge cultures are diluted to give a target titre of 10^3 to 10^5 colour changing units/ml. 0.1 ml aliquots of challenge inocula are mixed with 0.1 ml aliquots of antibiotic dilution in microtitre wells. Each microtitre plate contains uninoculated media at pH 7.6 (end point control) and antibiotic-free inoculated challenge controls. All plates are sealed with adhesive film and incubated aerobically at 36° C. MICs are recorded when the colour change in the challenge control wells matches the pH of the end point control. The MIC is the lowest concentration showing no colour change.

[4] = tiamulin 100 ppm, treatment period
[5] = tylosin 0.05%, tiamulin, valnemulin all but the lowest dose
[6] = valnemulin 0.0125 and 0.025%, tylosin 0.05%

## C=C[C@]1(C)C[C@@H](OC(=O)CSCCN(CC)CC)[C@]2(C)[C@H](C)CC[C@]3(CCC(=O)[C@H]32)[C@@H](C)[C@@H]1O [tiamulin hydrogen fumarate]
S. hyodysenteriae; tiamulin 100 ppm
  day by which improvement was seen in surviving pigs: ≤ 8 days
  mean clinical score: 30
  mortality in words: reduced mortality compared to unmedicated controls but did not prevent some deaths
S. hyodysenteriae; tiamulin 100 ppm, last day of trial
  pigs with swine dysentery in post treatment period: one pig
S. hyodysenteriae; [4]
  animals that died or required euthanasia: 3 animals
  daily live weight gain (DLWG): 0.1
  feed conversion ratio (FCR): 6.4
Mycoplasma gallisepticum [1]; tiamulin highest dose (0.025%), tylosin 0.05%
  recovery of MG during life or at necropsy: not recovered
Mycoplasma gallisepticum [1]; [5]
  weight gain: next but significantly less (p<0.05)
Mycoplasma gallisepticum [1]; [6]
  prevention of clinical signs and mortality: equally satisfactory
Mycoplasma gallisepticum [2]; tiamulin and tylosin
  lesions: only a few
Mycoplasma gallisepticum [2]
  mortality: no more than 5%
Pasteurella multocida; 18 h, read-out: MIC mean
  MIC: 9.2 µg/mL
Pasteurella multocida; read-out: MIC range
  MIC: 4 to 16 µg/mL
[3]; 18 h, read-out: MIC mean
  MIC: 4.5 µg/mL
[3]; read-out: MIC range
  MIC: 0.125 to 16 µg/mL
Mycoplasma hyosynoviae
  MIC: 0.0025 to 0.025 µg/mL

## C=C[C@]1(C)C[C@@H](OC(=O)CSC(C)(C)CNC(=O)[C@H](N)C(C)C)[C@]2(C)[C@H](C)CC[C@]3(CCC(=O)[C@H]32)[C@@H](C)[C@@H]1O [valnemulin hydrochloride, 14-O-[1-[(R)-2-amino-3-methylbutyrylamino]-2-methylpropan-2-ylthioacetyl]mutilin]
S. hyodysenteriae; all levels of valnemulin, after withdrawal of medicated feed
  shedding of S. hyodysenteriae in faeces: prevented by all levels of valnemulin
S. hyodysenteriae; days 3 to 10, all valnemulin groups
  p of clinical scores, valnemulin vs tiamulin: < 0.001
S. hyodysenteriae; valnemulin 50, 75, 100, 150 ppm
  survival: All pigs treated with valnemulin survived
S. hyodysenteriae; valnemulin 50, 75, 100 and 150 ppm
  recovery from clinical swine dysentery compared to tiamulin: reduction in the number of days that were needed to recover
S. hyodysenteriae; valnemulin 50 ppm
  pigs with clinical signs in post treatment period: one pig
  pigs with clinical swine dysentery at post-mortem: 1 pig
  pigs with reddening of the large intestine: one other pig
  time to clinical signs after withdrawal of medicated feed: 4 days
S. hyodysenteriae; valnemulin 75, 100 or 150 ppm
  post-mortem lesions of swine dysentery: not seen
S. hyodysenteriae; valnemulin 75 ppm
  pigs with S. hyodysenteriae in mucosal scrapings: One pig
S. hyodysenteriae; valnemulin 100 ppm
  efficacy in words: highly effective
S. hyodysenteriae; valnemulin, all levels
  day by which clinical disease was not seen: ≤ 5 days
Mycoplasma gallisepticum [1]; [5]
  weight gain: next but significantly less (p<0.05)
Mycoplasma gallisepticum [1]; valnemulin 0.0125 and 0.025%
  prevention of MG infection vs reference compounds: as effective as the reference compounds
Mycoplasma gallisepticum [1]; [6]
  prevention of clinical signs and mortality: equally satisfactory
Mycoplasma gallisepticum [1]; valnemulin 0.0125 and 0.025%, tiamulin, tylosin 0.05%
  lesions (frequency and severity): then the two higher doses of valnemulin
Mycoplasma gallisepticum [1]; valnemulin 2 lower doses (0.00312, 0.00625%)
  effect on lesions: less effective
Mycoplasma gallisepticum [1]; valnemulin highest dose (0.025%)
  birds with MG isolated: only one bird
Mycoplasma gallisepticum [1]; valnemulin lowest dose
  weight gain: lowest weight gains
Mycoplasma gallisepticum [2]; valnemulin 0.025% and 0.05% in drinking water
  overall efficacy vs comparators: at least as good as or better than tiamulin at 0.05% or tylosin at 0.05% and very much better than Linco-Spectin
Mycoplasma gallisepticum [2]; valnemulin 3 groups, tylosin 0.05%
  recovery of Mycoplasma at 23 days: not recovered
Mycoplasma gallisepticum [2]
  mortality: no more than 5%
Mycoplasma gallisepticum [2]; valnemulin at all concentrations
  weight gains: higher than for the tiamulin treated groups and equal to the tylosin group
Mycoplasma gallisepticum [2]; valnemulin highest and lowest doses
  lesions: Lesions were not seen
Pasteurella multocida; P. multocida
  mean increase in activity compared with tiamulin: two and a half fold
Pasteurella multocida; 18 h, read-out: MIC mean
  MIC: 3.8 µg/mL
Pasteurella multocida; read-out: MIC range
  MIC: 2 to 8 µg/mL
[3]; 18 h, read-out: MIC mean
  MIC: 0.85 µg/mL
[3]; read-out: MIC range
  MIC: 0.125 to 4 µg/mL
[3]; H. pleuropneumoniae
  mean increase in activity compared with tiamulin: five and a half fold
Mycoplasma hyosynoviae
  MIC: 0.0001 to 0.0005 µg/mL
Mycoplasma hyosynoviae; seven field isolates
  sensitivity of isolates in words: much higher than for the other two compounds
